Experimental data reported in PubChem BioAssay (NCI).
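In this assay, cells in 96-well plates receive the compound at five concentrations for 48 hours. Endpoints are linearly interpolated between the surrounding concentrations. GI50 marks 50% less growth. TGI denotes the concentration required for complete inhibition of growth.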

What was measured:
Assay in all cases: inhibition of tumour cell growth, NCI panel, 48 h
DMS 114 small cell lung = test system: DMS 114 small cell lung
M19-MEL melanoma = test system: M19-MEL melanoma
SNB-78 CNS = test system: SNB-78 CNS
DU-145 prostate = test system: DU-145 prostate
MDA-MB-231 breast = test system: MDA-MB-231 breast
NCI/ADR-RES ovarian = test system: NCI/ADR-RES ovarian
T-47D breast = test system: T-47D breast
MDA-N = test system: MDA-N

Compound | TGI (DMS 114 small cell lung) | TGI (M19-MEL melanoma) | TGI (SNB-78 CNS) | GI50 (DU-145 prostate) | TGI (DU-145 prostate) | GI50 (MDA-MB-231 breast) | TGI (MDA-MB-231 breast) | GI50 (NCI/ADR-RES ovarian) | TGI (NCI/ADR-RES ovarian) | GI50 (T-47D breast) | TGI (T-47D breast) | also measured
Cc1cc2nc3c(=O)n(C)c(=O)nc-3n(-c3ccc(Cl)cc3)c2cc1C | 13.7 µM | 5.74 µM | 45.9 µM |  |  |  |  |  |  |  |  | 
CN1CCN(Cc2ccc(NC(=O)c3cncc(C#Cc4cnc(N)c5ccc(F)cc45)c3)cc2C(F)(F)F)CC1 |  |  |  | 1.25 µM | 5.01 µM | 0.936 µM | 3.66 µM | 3.22 µM | 10.4 µM | 4.53 µM | 11.4 µM | 
O=[N+]([O-])c1ccc2[nH]cc(-c3c4ccsc4cc4[nH]c5ccc([N+](=O)[O-])cc5c34)c2c1 |  |  |  | 0.833 µM | 2.69 µM | 1.2 µM | 5.75 µM | 0.744 µM | 8.22 µM | 0.864 µM | 4.46 µM | 
O=c1ccn(C2OC(CO)C(O)C2O)c(=O)[nH]1 (stereo not given) |  |  |  |  | > 1000 µM |  | > 1000 µM | > 1000 µM | > 1000 µM | > 1000 µM | > 1000 µM | GI50 (MDA-N): > 1000 µM; TGI (MDA-N): > 1000 µM
COc1ccc2c(c1)C(=O)CC(N)C2 (stereo not given) |  |  |  |  | > 100 µM |  | > 100 µM |  | > 100 µM |  | > 100 µM | TGI (MDA-N): > 100 µM
CCCCNc1nc(NC(C)(C)C)nc(NC(C)(C)C)n1 |  |  |  | 8.82 µM | > 100 µM | 2.27 µM | 34.8 µM | 3.31 µM | > 100 µM | 15.2 µM | > 100 µM | 
CC(=O)O[C@H]1C(N(C)C(=O)c2ccccc2)CC[C@]2(C)C3CC[C@@]4(C)C(CC(O)[C@@H]4C(C)N(C)C)[C@@H]3CCC12 (stereo not given in full) | > 100 µM | > 100 µM | > 100 µM |  |  |  |  |  |  |  |  | 
CCN(CC)c1ccc(N=Nc2ccc(-c3nc4cccnc4o3)cc2)cc1 | > 100 µM | > 100 µM | > 100 µM |  |  |  |  |  |  |  |  | 
COc1cc2nc(-c3ccc(C(F)(F)F)cc3)cc(OCCCN3CCOCC3)c2cc1OC |  |  |  | 10.1 µM | 24 µM | 0.498 µM | 4.51 µM | 0.64 µM | 22.7 µM | 0.654 µM | 23.8 µM | 
COc1ccc(/C=C/c2cc(OC)c(OC)c(OC)c2)cc1NC(=O)/C=C/c1ccc(F)cc1 |  |  |  | 4.05 µM | > 40.5 µM | 5.8 µM | > 100 µM | 1.19 µM | 6.38 µM | 5.51 µM | > 100 µM | 
Nc1nc(-c2cccc([N+](=O)[O-])c2)c(Br)c(=O)[nH]1 |  |  |  |  | > 100 µM |  | > 100 µM |  | > 100 µM |  | > 100 µM | 
Cc1c(CCCl)c(=O)n2c([nH]c3ccccc32)c1C#N |  |  |  |  | 5.63 µM |  | 3.09 µM |  | 2.7 µM |  | 2.97 µM | TGI (MDA-N): 3.33 µM
S=C(Nc1ccc(-c2nc3ccccc3[nH]2)cc1)NC1CCCCC1 |  |  |  | 37.9 µM |  | 18.1 µM | 43.1 µM | 28.6 µM | 82.2 µM | 27 µM |  | 
CCCC(=O)c1c(NOC2OC(COC(C)=O)C(OC(C)=O)C(OC(C)=O)C2OC(C)=O)nc(OC)n(C)c1=O (stereo not given) | > 100 µM | > 100 µM | > 100 µM |  |  |  |  |  |  |  |  | 
N#CC(C#N)=C(N)/C(C#N)=C\c1ccnc2ccccc12 | 38.8 µM | 40.8 µM | > 100 µM |  |  |  |  |  |  |  |  | 
C=CCn1c(C)nc2cc(Nc3nc(Nc4ccc5nc(C)n(CC=C)c5c4)c4ccccc4n3)ccc21 |  |  |  | 0.389 µM | 1.34 µM |  |  | 2.03 µM | 5.27 µM | 0.28 µM | 0.909 µM | 
CN(C)CCNc1nc2ccccc2c2c1c1c(n2Cc2ccccc2)-c2ccccc2C1=O |  |  |  | 15 µM | 30.6 µM | 16.5 µM | 32.1 µM | 5.77 µM | 23.1 µM | 19.4 µM | 50.6 µM | 
CCOC(=O)[C@@H](C)C[C@H](Cc1ccccc1)NC(=O)c1csc([C@@H](C[C@H](C(C)C)N(C)C(=O)[C@@H](NC(=O)[C@H]2C[C@H](O[Si](C)(C)C(C)(C)C)CCN2C)C(C)C)OC(C)=O)n1 |  |  |  | 0.287 µM | > 3.91 µM | 0.329 µM | 1.89 µM | 1.29 µM | 5.03 µM | 0.297 µM | > 8.33 µM | 
COc1cc(OC2OC(C)C(O)C(O)C2O)cc2oc(-c3ccc(O)cc3)c(CC=C(C)C)c(=O)c12 (stereo not given) |  |  |  | 34.3 µM | > 100 µM | 6.38 µM | 21.4 µM | 24.3 µM | 93.3 µM | 8.74 µM | 30.8 µM | 
Cc1ccc(C(=O)c2oc3ccc4c(C)cc(=O)oc4c3c2C)cc1 |  |  |  | 9.7 µM | > 100 µM | 11.1 µM | > 100 µM | 10.2 µM | > 100 µM | 50.1 µM | > 100 µM | 
CCN(CC)CCC1CC/C(=C\c2ccc(OC)cc2)C1=O (stereo not given) | > 100 µM | > 100 µM | > 100 µM |  |  |  |  |  |  |  |  | 
Clc1nc(Oc2ccccc2)nc(-c2cn(-c3ccccc3)c3ccccc23)n1 |  |  |  | 8.6 µM | 21.8 µM | 5.33 µM | 15.7 µM | 17.8 µM | 34.9 µM | 8.58 µM | 29.5 µM | 
O=C(Nc1ccccc1)c1ccc(Cl)c([N+](=O)[O-])c1 | 33.2 µM | 34.3 µM | 83.9 µM |  |  |  |  |  |  |  |  | 
COc1ccc(NC(=O)C2C(=O)N(c3ccc(OC)cc3)C(=O)/C2=N/O)cc1 (stereo not given) | > 100 µM | 61.1 µM | > 100 µM |  |  |  |  |  |  |  |  | 
COc1cc(-c2nc3ccc(C)cc3[nH]2)ccc1OCC(=O)N=Nc1c(O)[nH]c2ccccc12 |  |  |  | 2.05 µM | 4.39 µM | 1.64 µM | 3.1 µM | > 100 µM | > 100 µM |  |  | 
CC(=O)CC1CCC(=O)CCC(=O)OC(CC(C)=O)CCC(=O)CCC(=O)O1 (stereo not given) |  |  |  |  | > 100 µM |  | > 100 µM |  | > 100 µM |  | > 100 µM | TGI (MDA-N): > 100 µM
COc1ccc(-c2c(C3=NCCN3)nnn2-c2ccccc2)cc1 | > 100 µM | > 100 µM | > 100 µM |  |  |  |  |  |  |  |  | 
CN1CCN(CCSC2Cc3cc(Cl)ccc3Sc3ccccc32)CC1 (stereo not given) | 11.2 µM | 4.16 µM |  |  |  |  |  |  |  |  |  | 
C[CH2][Sn]1([CH2]C)[O]C(=O)[O][Sn]([CH2]C)([CH2]C)[O]1 | 26.7 µM | 37.9 µM | 37.4 µM |  |  |  |  |  |  |  |  | GI50 (DMS 114 small cell lung): 12.6 µM; GI50 (M19-MEL melanoma): 18.5 µM; GI50 (SNB-78 CNS): 17.1 µM
